From patent US10344019B2 (priority 2010, dated 2019)
Where two headings read alike, the source gives them in different places.

Columns and labels:
Type in all cases: cell-based
[1] = tested on: HCV 2a Rluc cells (NS5A chimeric genotype 2a JFH-1 replicon with genotype 2a J6 strain NS5A gene, M31 present); experiment: HCV replicon reporter assay, genotype 2a J6 (M31 present); conditions: read-out: 2a J6
Outline: (§1)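 Replicon cells stably carrying the listed RLuc-encoding dicistronic replicons were seeded and treated with DMSO serial dilutions of compound (10 mM stocks) diluted into culture medium. After 72 h, cells were lysed and Renilla luciferase activity measured. EC50 was derived by non-linear regression.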

[2] = tested on: HCV 1b RLuc cells (dicistronic genotype 1b Con1 replicon, RLuc reporter); experiment: microbe, parasite or virus in culture; conditions: Hepatitis C virus, read-out: 1b (nM)
Outline: as §1

[3] = tested on: HCV 2b Rluc cells (NS5A chimeric genotype 2a JFH-1 replicon with genotype 2b MD2b-1 NS5A gene, M31 present); experiment: microbe, parasite or virus in culture; conditions: read-out: 2b
Outline: as §1

[4] = tested on: HCV 1a RLuc cells (dicistronic genotype 1a H77 replicon, RLuc reporter); experiment: microbe, parasite or virus in culture; conditions: Hepatitis C virus, read-out: 1a
Outline: as §1

[5] = tested on: HCV 2a JFH-1 Rluc cells (dicistronic genotype 2a JFH-1 replicon, RLuc reporter); experiment: microbe, parasite or virus in culture; conditions: Hepatitis C virus, read-out: 2a JFH
Outline: as §1

[6] = tested on: HCV 3a RLuc cells (NS5A chimeric genotype 1b Con1 replicon with consensus genotype 3a NS5A gene); experiment: microbe, parasite or virus in culture; conditions: Hepatitis C virus
Outline: as §1

[7] = tested on: HCV 4a Rluc cells (NS5A chimeric genotype 1b Con1 replicon with genotype 4a NS5A gene); experiment: microbe, parasite or virus in culture; conditions: read-out: 4a
Outline: as §1

[8] = tested on: Q30R in genotype 1a NS5A, 1a Rluc replicon transfected into Huh-7 cured-51 cells; experiment: HCV replicon assay, resistance mutant 1a Q30R
Protocol: Evaluation of cell-based anti-HCV activity: Antiviral potency (EC50) was determined using a Renilla luciferase (RLuc)-based HCV replicon reporter assay. To perform the assay for genotype 1 and 2a JFH-1, HCV 1b RLuc cells (harboring a dicistronic genotype 1b Con1 replicon that encodes a RLuc reporter), or HCV 1a RLuc cells (harboring a dicistronic genotype 1a H77 replicon that encodes a RLuc reporter), or HCV 2a JFH-1 Rluc cells (harboring a dicistronic genotype 2a JFH-1 replicon that encodes a RLuc reporter) were dispensed into 384-well plates. To perform the assay for genotype 2a (with M31 present) or 2b, HCV 2a Rluc or 2b Rluc cells (both with M31 present) harboring a dicistronic NS5A chimeric genotype 2a JFH-1 replicon that encodes a RLuc reporter and either genotype 2a J6 strain NS5A gene or genotype 2b MD2b-1 NS5A gene (based on Los Alamos HCV database isolates, both with M31 present) respectively, were dispensed into 384-well plates. To perform the assay for genotype 3 and 4, HCV 3a RLuc or 4a Rluc cells harboring a dicistronic NS5A chimeric genotype 1b Con1 replicon that encodes a RLuc reporter and either a consensus genotype 3a NS5A gene or genotype 4a NS5A gene (based on Los Alamos HCV database isolates) respectively, were dispensed into 384-well plates. Compounds were re-suspended in DMSO at a concentration of 10 mM and serially diluted in DMSO either manually or using an automated pipeting instrument. Serially diluted compounds were mixed with cell culture media and added to the seeded cells. […] 72 hours later, cells were lysed and Renilla luciferase activity quantified as recommended by the manufacturer (Promega-Madison, Wis.). Non-linear regression was performed to calculate EC50 values.
To determine the antiviral potency (EC50) against resistance mutants, resistance mutations, including M28T, Q30R, Q30H, L31M, and Y93C in genotype 1a NS5A and Y93H in genotype 1b NS5A, were introduced individually into either 1a Rluc or 1b Rluc replicons described above by site directed mutagenesis. Replicon RNA of each resistant mutant was transfected into Huh-7 cured-51 cells and antiviral potency was determined on these transfected cells as described above.

[9] = read-out: 3a, genotype 3a replicon
[10] = Hepatitis C virus, Huh-7, read-out: 1a Q30R
[11] = 72 h, Table 1, genotype 1a H77 replicon, 72 hours
[12] = 72 h, Table 1, genotype 2a JFH-1 replicon, 72 hours
[13] = read-out: 3a, Table 1, genotype 3a NS5A chimeric replicon
[14] = genotype 2a JFH-1 RLuc replicon
[15] = read-out: 3a, genotype 3a NS5A chimeric replicon

Structure (SMILES) | EC50 ([1]; Hepatitis C virus) | EC50 ([3]; Hepatitis C virus) | EC50 ([7]; Hepatitis C virus) | EC50 [8, 10] | EC50 ([4]; genotype 1a H77 RLuc replicon) | EC50 [5, 14] | EC50 [6, 15] | further results
COC[C@H]1CC(c2nc3ccc4cc(-c5ccc(-c6cnc([C@@H]7CCCN7C(=O)[C@H](NC(=O)C7CC7)c7ccccc7)[nH]6)cc5)ccc4c3[nH]2)N(C(=O)[C@@H](NC(=O)OC)C(C)C)C1 (stereo in doubt) [Example 425] | 1 to 999 pM | 1 to 999 pM | 1 to 990 pM | 1 to 999 pM |  |  |  | EC50 [2]: 0.034 nM; EC50 ([4]; genotype 1a replicon): 1 to 999 pM; EC50 ([5]; genotype 2a JFH-1 replicon): 1 to 999 pM; EC50 [6, 9]: 1 to 990 pM
COC(=O)N[C@H](C(=O)N1CCC[C@H]1c1ncc(-c2cc3c4c(c2)OCc2cc(-c5cnc([C@@H]6CCCN6C(=O)[C@H](NC(=O)OC)c6ccccc6)[nH]5)cc(c2-4)OC3)[nH]1)C(C)C [Example 25c] | 1000 to 44000 pM | 1 to 999 pM | 1 to 990 pM | 1 to 999 pM |  |  |  | EC50 ([2]; 72 h): 0.031 nM; EC50 [4, 11]: 1 to 999 pM; EC50 [5, 12]: 1 to 999 pM; EC50 [6, 13]: 1 to 990 pM
COC(=O)N[C@@H](C(=O)N1CCC[C@H]1c1ncc(-c2cc3c4c(c2)OCc2cc(-c5cnc([C@@H]6CCCN6C(=O)[C@H](NC(=O)OC)c6ccccc6)[nH]5)cc(c2-4)OC3)[nH]1)c1ccccc1 [Example 25d] | 1 to 999 pM | 1 to 999 pM | 1 to 990 pM | 1 to 999 pM |  |  |  | EC50 ([2]; 72 h): 0.048 nM; EC50 [4, 11]: 1 to 999 pM; EC50 [5, 12]: 1 to 999 pM; EC50 [6, 13]: 1 to 990 pM
COC(=O)N[C@H](C(=O)N1CCC[C@H]1c1nc2ccc3cc(-c4ccc5c(ccc6nc([C@@H]7[C@H]8CC[C@H](C8)N7C(=O)[C@@H](NC(=O)OC)C(C)C)[nH]c65)c4)ccc3c2[nH]1)C(C)C [Example 63] | 1000 to 44000 pM | > 44000 pM | 1 to 990 pM | 1000 to 44000 pM |  |  |  | EC50 ([2]; 72 h): 0.019 nM; EC50 ([4]; 72 h, Table 2, genotype 1a H77 replicon, 72 hours): 1 to 999 pM; EC50 ([5]; 72 h, Table 2, genotype 2a JFH-1 replicon, 72 hours): 1 to 999 pM; EC50 ([6]; read-out: 3a, Table 2, genotype 3a NS5A chimeric replicon): 1 to 990 pM
COC(=O)N[C@H](C(=O)N1CCC[C@H]1c1nc2ccc3cc(-c4ccc5c(ccc6nc([C@@H]7CC8(CN7C(=O)[C@H](NC(=O)OC)c7ccccc7)OCCO8)[nH]c65)c4)ccc3c2[nH]1)C(C)C [Example 317] | 1 to 999 pM | 1 to 999 pM | 1 to 990 pM | 1 to 999 pM |  |  |  | EC50 [2]: 0.023 nM; EC50 ([4]; genotype 1a replicon): 1 to 999 pM; EC50 ([5]; genotype 2a JFH-1 replicon): 1 to 999 pM; EC50 [6, 9]: 1 to 990 pM
COC(=O)N[C@H](C(=O)N1CCC[C@H]1c1ncc(-c2ccc3c(c2)COc2cc4c(ccc5nc([C@@H]6C[C@H](C)CN6C(=O)[C@@H](NC(=O)OC)C(C)C)[nH]c54)cc2-3)[nH]1)C(C)C [Example 526] | 1 to 999 pM | 1 to 999 pM | 1 to 990 pM | 1 to 999 pM | 1 to 999 pM | 1 to 999 pM | 1 to 990 pM | 
COC[C@H]1C[C@@H](c2nc3ccc4cc5c(cc4c3[nH]2)OCc2cc(-c3cnc([C@@H]4CCCN4C(=O)[C@@H](NC(=O)OC)C(C)C)[nH]3)ccc2-5)N(C(=O)[C@H](NC(=O)OC)c2ccccc2)C1 [Example 538] | 1 to 999 pM | 1 to 999 pM | 1 to 990 pM | 1 to 999 pM | 1 to 999 pM | 1 to 999 pM | 1 to 990 pM | 
COC[C@H]1C[C@@H](c2nc3ccc4cc(-c5ccc6c(ccc7nc([C@@H]8CCCN8C(=O)[C@@H](NC(=O)OC)C(C)C)[nH]c76)c5)ccc4c3[nH]2)N(C(=O)[C@H](NC(=O)OC)c2ccccc2)C1 [Example 540] |  |  |  |  | 1 to 999 pM | 1 to 999 pM | 1 to 990 pM | EC50 ([1]; genotype 2a J6 NS5A chimeric replicon, M31 present): 1 to 999 pM; EC50 ([3]; genotype 2b NS5A chimeric replicon, M31 present): 1 to 999 pM; EC50 ([7]; genotype 4a NS5A chimeric replicon): 1 to 990 pM; EC50 ([8]; read-out: 1a Q30R, genotype 1a NS5A Q30R resistance mutant): 1 to 999 pM
COC(=O)N[C@H](C(=O)N1CCC[C@H]1c1ncc(-c2ccc3c(c2)COc2cc4c(ccc5nc([C@@H]6C[C@H](C)CN6C(=O)[C@H](NC(=O)OC)c6ccccc6)[nH]c54)cc2-3)[nH]1)C(C)C [Example 543] | 1 to 999 pM | 1 to 999 pM | 1 to 990 pM | 1 to 999 pM | 1 to 999 pM | 1 to 999 pM | 1 to 990 pM | 
COC[C@H]1C[C@@H](c2nc3ccc4cc5c(cc4c3[nH]2)OCc2cc(-c3cnc([C@@H]4C[C@H](C)CN4C(=O)[C@H](NC(=O)OC)c4ccccc4)[nH]3)ccc2-5)N(C(=O)[C@@H](NC(=O)OC)C(C)C)C1 [Example 572] | 1 to 999 pM | 1 to 999 pM | 1 to 990 pM | 1 to 999 pM | 1 to 999 pM | 1 to 999 pM | 1 to 990 pM | 
COC(=O)N[C@H](C(=O)N1[C@H](c2nc3ccc4cc5c(cc4c3[nH]2)OCc2cc(-c3cnc(C4CCCN4C(=O)[C@H](NC(=O)OC)c4ccccc4)[nH]3)ccc2-5)C[C@@H]2CCC[C@@H]21)C(C)C (some centres unmarked) [Example 574] | 1 to 999 pM | 1 to 999 pM | 1 to 990 pM | 1 to 999 pM | 1 to 999 pM | 1 to 999 pM | 1 to 990 pM | 
COC[C@H]1C[C@@H](c2nc3c([nH]2)-c2cc4c(cc2CC3)-c2ccc(-c3cnc([C@@H]5CCCN5C(=O)[C@@H](NC(=O)OC)C(C)C)[nH]3)cc2CO4)N(C(=O)[C@H](NC(=O)OC)c2ccccc2)C1 [Example 587] | 1 to 999 pM | 1 to 999 pM | 1 to 990 pM | 1 to 999 pM | 1 to 999 pM | 1 to 999 pM | 1 to 990 pM | 
COC(=O)N[C@H](C(=O)N1CCC[C@H]1c1ncc(-c2ccc3c(c2)COc2cc4c(ccc5nc([C@@H]6CCCN6C(=O)[C@H](NC(=O)OC)c6ccccc6)[nH]c54)cc2-3)[nH]1)[C@@H](C)OC [Example 588] | 1 to 999 pM | 1 to 999 pM | 1 to 990 pM | 1 to 999 pM | 1 to 999 pM | 1 to 999 pM | 1 to 990 pM | 
COC[C@@H]1C[C@@H](c2nc3ccc4cc5c(cc4c3[nH]2)OCc2cc(-c3cnc([C@@H]4CCCN4C(=O)[C@@H](NC(=O)OC)C(C)C)[nH]3)ccc2-5)N(C(=O)[C@H](NC(=O)OC)c2ccccc2)C1 [Example 589] | 1 to 999 pM | 1 to 999 pM | 1 to 990 pM | 1 to 999 pM | 1 to 999 pM | 1 to 999 pM | 1 to 990 pM | 
COC(=O)N[C@H](C(=O)N1[C@@H](C)CC[C@H]1c1ncc(-c2ccc3c(c2)COc2cc4c(ccc5nc([C@@H]6CC[C@H](C)N6C(=O)[C@@H](NC(=O)OC)[C@@H](C)OC)[nH]c54)cc2-3)[nH]1)[C@@H](C)OC [Example 592] | 1 to 999 pM | 1 to 999 pM | 1 to 990 pM | 1 to 999 pM | 1 to 999 pM | 1 to 999 pM | 1 to 990 pM | 
